Test [1] relates to phosphorylation level of intracellular protein kinase (ERK) in MOLM13 cells. As to the kind of experiment: Phosphorylated protein kinase (p-ERK) cell experiment (AlphaLISA). Format: cell-based. The conditions noted are these: Homo sapiens, MOLM-13, MOLM13 cells. (In general: Alpha assays give light when donor and acceptor beads are brought close together.)
In another test the test system is MOLM-13 cells. As to the kind of experiment: MOLM-13 cell proliferation experiment. The class given is cell-based. The procedure:
After 3 days, 5 µL of CellTiter-Glo reagent (Promega, ZG7572) was added to each well, and the plates were kept at room temperature in the dark for 10 minutes. The […] was detected by Spectra max i3 (Molecular Devices). The relative growth rate of the treated cells was compared with that of DMSO control.

A further test concerns the target SHP2^E76A protein (Homo sapiens (Human), UniProt Q06124, E76A). As to the kind of experiment: SHP2 enzyme activity inhibition experiment. The class given is biochemical. In outline: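 Compounds tested at 10 concentrations in 3-fold serial dilution. IC50 from a four-parameter Hill-slope nonlinear fit of enzyme activity versus concentration.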
Setting [2] is: p-ERK, 2 hours of cell treatment, Tables 2.1 and 2.2, read-out: IC50.
The mark [3] stands for this setting: Homo sapiens, MOLM-13, 72 h, MOLM-13 cell proliferation, 3 days, Tables 3.1 and 3.2, read-out: IC50.
The mark [4] stands for this setting: SHP2 enzyme activity, Tables 1.1 and 1.2, read-out: IC50.
Where [5] appears, read: Homo sapiens, MOLM-13, read-out: MOLM-13 cell proliferation IC50.
[6] abbreviates: Table 4, read-out: SHP2 enzyme activity IC50.

Each structure is given as a SMILES string. Read-outs that look alike come from different tables or passages of the source.

Sequence of SHP2^E76A protein (Q06124 whole entry E76A): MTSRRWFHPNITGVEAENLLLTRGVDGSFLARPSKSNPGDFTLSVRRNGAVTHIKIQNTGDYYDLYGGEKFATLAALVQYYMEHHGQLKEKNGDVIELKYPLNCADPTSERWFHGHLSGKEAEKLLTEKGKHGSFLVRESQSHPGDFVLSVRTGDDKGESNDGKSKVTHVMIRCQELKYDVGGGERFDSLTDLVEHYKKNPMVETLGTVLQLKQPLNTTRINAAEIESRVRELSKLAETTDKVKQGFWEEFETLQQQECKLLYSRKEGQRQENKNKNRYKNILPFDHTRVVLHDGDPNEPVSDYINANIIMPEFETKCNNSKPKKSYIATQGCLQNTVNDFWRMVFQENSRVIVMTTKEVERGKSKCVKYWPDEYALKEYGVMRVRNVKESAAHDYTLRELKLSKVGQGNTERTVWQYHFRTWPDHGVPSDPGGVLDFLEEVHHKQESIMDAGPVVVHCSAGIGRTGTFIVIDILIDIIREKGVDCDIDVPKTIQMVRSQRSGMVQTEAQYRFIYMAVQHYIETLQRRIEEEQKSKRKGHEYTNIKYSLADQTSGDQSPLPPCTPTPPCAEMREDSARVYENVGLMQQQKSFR

Turning to `N[C@@H]1CCCC12CCN(c1ncc(Sc3ccnnc3Cl)c3nccn13)CC2` [(R)-8-(8-((3-chloropyridazin-4-yl)thio)imidazo[1,2-c]pyrimidin-5-yl)-8-azaspiro[4.5]decan-1-amine], the IC50 (in test [1] (setting [2]); in the test with MOLM-13 cells (setting [3]); at SHP2^E76A protein (setting [4])) was 0.1 to 1 µM throughout.
As for `N[C@@H]1CCCC12CCN(c1ncc(Sc3ccncc3Cl)c3nncn13)CC2` [(R)-8-(8-((3-chloropyridin-4-yl)thio)-[1,2,4]triazolo[4,3-c]pyrimidin-5-yl)-8-azaspiro[4.5]decan-1-amine], the IC50 in test [1] (Table 4, read-out: p-ERK IC50) is 0.357 µM; in test [1] (setting [2]), 0.1 to 1 µM; with MOLM-13 cells (setting [3]), 0.1 to 1 µM; with MOLM-13 cells (setting [5]), 0.324 µM; at SHP2^E76A protein (setting [4]), 0.1 to 1 µM; at SHP2^E76A protein (setting [6]), 0.1 µM.
For `N[C@@H]1CCCC12CCN(c1ncc(Sc3ccncc3Cl)c3nccn13)CC2` [(R)-8-(8-((3-chloropyridin-4-yl)thio)imidazo[1,2-c]pyrimidin-5-yl)-8-azaspiro[4.5]decan-1-amine], the IC50 (in test [1] (setting [2]); with MOLM-13 cells (setting [3]); at SHP2^E76A protein (setting [4])) was 0.1 to 1 µM each time.
On to `Nc1cc(Sc2cnc(N3CCC4(CCC[C@H]4N)CC3)n3ncnc23)c(Cl)c(Cl)n1` [(R)-8-(8-((6-amino-2,3-dichloropyridin-4-yl)thio)-[1,2,4]triazolo[1,5-c]pyrimidin-5-yl)-8-azaspiro[4.5]decan-1-amine], for which the IC50 (in test [1] (setting [2]); in the test on MOLM-13 cells (setting [3]); on SHP2^E76A protein (setting [4])) was 0.1 to 1 µM throughout.
In the case of `Nc1cc(Sc2cnc(N3CCC4(CCC[C@H]4N)CC3)n3cnnc23)c(Cl)c(Cl)n1` [(R)-8-(8-((6-amino-2,3-dichloropyridin-4-yl)thio)-[1,2,4]triazolo[4,3-c]pyrimidin-5-yl)-8-azaspiro[4.5]decan-1-amine], the IC50 in test [1] (Table 4, read-out: p-ERK IC50) is 0.75 µM; in test [1] (setting [2]), 0.1 to 1 µM; in the test on MOLM-13 cells (setting [3]) it was 0.1 to 1 µM; in the test with MOLM-13 cells (setting [5]) it was 0.303 µM; on SHP2^E76A protein (setting [4]) it was below 0.1 µM; at SHP2^E76A protein (setting [6]), 0.02 µM.
`Nc1cc(Sc2cnc(N3CCC4(CC3)CC(F)(F)C[C@H]4N)n3ccnc23)c(Cl)c(Cl)n1` [(R)-8-(8-((6-amino-2,3-dichloropyridin-4-yl)thio)imidazo[1,2-c]pyrimidin-5-yl)-3,3-difluoro-8-azaspiro[4.5]decan-1-amine]: the IC50 was 0.062 µM in test [1] (Table 4, read-out: p-ERK IC50); below 0.1 µM in test [1] (setting [2]); 0.1 to 1 µM with MOLM-13 cells (setting [3]); 0.15 µM in the test with MOLM-13 cells (setting [5]); below 0.1 µM on SHP2^E76A protein (setting [4]); 0.035 µM on SHP2^E76A protein (setting [6]).
Regarding `Nc1cc(Sc2cnc(N3CCC4(CCC[C@H]4N)CC3)n3ccnc23)c(Cl)c(Cl)n1` [(R)-8-(8-((6-amino-2,3-dichloropyridin-4-yl)thio)imidazo[1,2-c]pyrimidin-5-yl)-8-azaspiro[4.5]decan-1-amine], the IC50 was 0.009 µM in test [1] (Table 4, read-out: p-ERK IC50); below 0.1 µM in test [1] (setting [2]); below 0.1 µM with MOLM-13 cells (setting [3]); 0.016 µM in the test with MOLM-13 cells (setting [5]); below 0.1 µM on SHP2^E76A protein (setting [4]); 0.012 µM at SHP2^E76A protein (setting [6]).
As to `Cc1nc(N)cc(Sc2cnc(N3CCC4(CC3)CC(F)(F)C[C@H]4N)n3ccnc23)c1Cl` [(R)-8-(8-((6-amino-3-chloro-2-methyl-pyridin-4-yl)thio)imidazo[1,2-c]pyrimidin-5-yl)-3,3-difluoro-8-azaspiro[4.5]decan-1-amine], the IC50 in test [1] (Table 4, read-out: p-ERK IC50) was 0.097 µM; in test [1] (setting [2]), below 0.1 µM; in the test with MOLM-13 cells (setting [5]) it was 0.15 µM; on SHP2^E76A protein (setting [4]) it was below 0.1 µM; at SHP2^E76A protein (setting [6]), 0.026 µM.
As for `Cc1nc(N)cc(Sc2cnc(N3CCC4(CCC[C@H]4N)CC3)n3ccnc23)c1Cl` [(R)-8-(8-((6-amino-3-chloro-2-methyl-pyridin-4-yl)thio)imidazo[1,2-c]pyrimidin-5-yl)-8-azaspiro[4.5]decan-1-amine], the IC50 in test [1] (Table 4, read-out: p-ERK IC50) is 0.037 µM; in test [1] (setting [2]), below 0.1 µM; with MOLM-13 cells (setting [5]) it was 0.21 µM; at SHP2^E76A protein (setting [6]) it was 0.017 µM.
For the compound `N[C@@H]1CCCC12CCN(c1ncc(Sc3cccc4ccccc34)c3nccn13)CC2` [(R)-8-(8-(naphthalen-1-ylthio)imidazo[1,2-c]pyrimidin-5-yl)-8-azaspiro[4.5]decan-1-amine], the IC50 in test [1] (Table 4, read-out: p-ERK IC50) is 0.49 µM; in test [1] (setting [2]), 0.1 to 1 µM; in the test with MOLM-13 cells (setting [3]), 0.1 to 1 µM; in the test on MOLM-13 cells (setting [5]), 0.15 µM; at SHP2^E76A protein (setting [4]) it was below 0.1 µM; on SHP2^E76A protein (setting [6]), 0.028 µM.
Take `N[C@@H]1CCCC12CCN(c1ncc(Sc3ccnc4ccccc34)c3nccn13)CC2` [(R)-8-(8-(quinolin-4-ylthio)imidazo[1,2-c]pyrimidin-5-yl)-8-azaspiro[4.5]decan-1-amine]: the IC50 in test [1] (Table 4, read-out: p-ERK IC50) is 0.031 µM; in test [1] (setting [2]), 0.1 to 1 µM; with MOLM-13 cells (setting [3]), below 0.1 µM; in the test with MOLM-13 cells (setting [5]), 0.099 µM; on SHP2^E76A protein (setting [4]) it was below 0.1 µM; at SHP2^E76A protein (setting [6]) it was 0.02 µM.
Turning to `C=CC(=O)Nc1cccc(Sc2cnc(N3CCC4(CCC[C@H]4N)CC3)n3cnnc23)c1Cl` [(R)-N-(3-((5-(1-amino-8-azaspiro[4.5]decan-8-yl)-[1,2,4]triazolo[4,3-c]pyrimidin-8-yl)thio)-2-chlorophenyl)acrylamide], the IC50 in test [1] (setting [2]) is 1 to 10 µM; in the test with MOLM-13 cells (setting [3]), 0.1 to 1 µM; at SHP2^E76A protein (setting [4]), 0.1 to 1 µM.
In the case of `C=CC(=O)Nc1cccc(Sc2cnc(N3CCC4(CCC[C@H]4N)CC3)n3ccnc23)c1Cl` [(R)-N-(3-((5-(1-amino-8-azaspiro[4.5]decan-8-yl)imidazo[1,2-c]pyrimidin-8-yl)thio)-2-chlorophenyl)acrylamide], the IC50 (in test [1] (setting [2]); with MOLM-13 cells (setting [3]); on SHP2^E76A protein (setting [4])) was 0.1 to 1 µM each time.
`N[C@@H]1COCC12CCN(c1ncc(Sc3cccc(Cl)c3Cl)c3ncnn13)CC2` [(S)-8-(8-((2,3-dichlorophenyl)thio)-[1,2,4]triazolo[1,5-c]pyrimidin-5-yl)-2-oxa-8-azaspiro[4.5]decan-4-amine]: the values for the IC50 (in test [1] (setting [2]); in the test on MOLM-13 cells (setting [3]); on SHP2^E76A protein (setting [4])) were 1 to 10 µM, 0.1 to 1 µM and 0.1 to 1 µM, respectively.
For the compound `N[C@@H]1COCC12CCN(c1ncc(Sc3cccc(Cl)c3Cl)c3nncn13)CC2` [(S)-8-(8-((2,3-dichlorophenyl)thio)-[1,2,4]triazolo[4,3-c]pyrimidin-5-yl)-2-oxa-8-azaspiro[4.5]decan-4-amine], the IC50 in test [1] (Table 4, read-out: p-ERK IC50) was 0.168 µM; in test [1] (setting [2]), 0.1 to 1 µM; in the test with MOLM-13 cells (setting [3]), 0.1 to 1 µM; in the test with MOLM-13 cells (setting [5]), 0.892 µM; on SHP2^E76A protein (setting [4]) it was below 0.1 µM; at SHP2^E76A protein (setting [6]), 0.02 µM.
With `N[C@@H]1COCC12CCN(c1ncc(Sc3ccnc(Cl)c3Cl)c3nccn13)CC2` [(S)-8-(8-((2,3-dichloropyridin-4-yl)thio)imidazo[1,2-c]pyrimidin-5-yl)-2-oxa-8-azaspiro[4.5]decan-4-amine], the values for the IC50 (in test [1] (setting [2]); in the test with MOLM-13 cells (setting [3]); on SHP2^E76A protein (setting [4])) were 0.1 to 1 µM, 0.1 to 1 µM and below 0.1 µM, respectively.
As to `Nc1nccc(Sc2cnc(N3CCC4(CC3)COC[C@H]4N)n3cnnc23)c1Cl` [(S)-8-(8-((2-amino-3-chloropyridin-4-yl)thio)-[1,2,4]triazolo[4,3-c]pyrimidin-5-yl)-2-oxa-8-azaspiro[4.5]decan-4-amine], the figures for the IC50 (in test [1] (setting [2]); with MOLM-13 cells (setting [3]); on SHP2^E76A protein (setting [4])) were 0.1 to 1 µM, 1 to 10 µM and 0.1 to 1 µM, respectively.
Take `Nc1nccc(Sc2cnc(N3CCC4(CC3)COC[C@H]4N)n3ccnc23)c1Cl` [(S)-8-(8-((2-amino-3-chloropyridin-4-yl)thio)imidazo[1,2-c]pyrimidin-5-yl)-2-oxa-8-azaspiro[4.5]decan-4-amine]: the IC50 in test [1] (setting [2]) is 0.1 to 1 µM; in the test on MOLM-13 cells (setting [3]), 0.1 to 1 µM; at SHP2^E76A protein (setting [4]) it was below 0.1 µM.
On to `Nc1cc(Sc2cnc(N3CCC4(CC3)COC[C@H]4N)n3ccnc23)c(Cl)c(Cl)n1` [(S)-8-(8-((6-amino-2,3-dichloropyridin-4-yl)thio)imidazo[1,2-c]pyrimidin-5-yl)-2-oxa-8-azaspiro[4.5]decan-4-amine], for which the IC50 is 0.028 µM in test [1] (Table 4, read-out: p-ERK IC50); below 0.1 µM in test [1] (setting [2]); below 0.1 µM with MOLM-13 cells (setting [3]); 0.054 µM with MOLM-13 cells (setting [5]); below 0.1 µM at SHP2^E76A protein (setting [4]); 0.009 µM on SHP2^E76A protein (setting [6]).
For the compound `Cc1nc(N)cc(Sc2cnc(N3CCC4(CC3)COC[C@H]4N)n3ccnc23)c1Cl` [(S)-8-(8-((6-amino-3-chloro-2-methyl-pyridin-4-yl)thio)imidazo[1,2-c]pyrimidin-5-yl)-2-oxa-8-azaspiro[4.5]decan-4-amine], the IC50 in test [1] (Table 4, read-out: p-ERK IC50) was 0.16 µM; in test [1] (setting [2]), 0.1 to 1 µM; with MOLM-13 cells (setting [3]) it was 0.1 to 1 µM; in the test on MOLM-13 cells (setting [5]), 0.34 µM; in the test with MOLM-13 cells (MOLM-13 cell proliferation, 3 days, Tables 3.1 and 3.2, read-out: IC50) it was below 0.1 µM; on SHP2^E76A protein (setting [4]), below 0.1 µM. Besides, at SHP2^E76A protein (setting [6]), the IC50 was 0.034 µM.

The values above are taken from patent US11498930B2 (BLUERAY THERAPEUTICS (SHANGHAI) CO., LTD., priority 2018, dated 2022).
